Values joined by “and” are separate entries in the source; they are usually repeats but may differ in a detail not shown here. Equal values may be shown once. Results filed as inconclusive are left out.
Tested on: MX-1 breast xenograft, nude mice, tumor weight T/C
Test: NCI In Vivo Anticancer Drug Screen. Data for tumor model Human Mammary Carcinoma MX-1 Xenograft (intrarenal inoculation) in NU/NU Swiss (nude) mice
Conditions: endpoint: mean tumor weight change, higher = larger tumour
In short: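 Compound dosed to mice with transplantable tumor; vehicle group as control. Endpoint survival or tumour size, reported as T/C.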

[1] = dose: 200.0 mg/kg/injection, schedule: Q04DX003 (sc), vehicle: suspension in saline
[2] = dose: 400.0 mg/kg/injection, schedule: Q04DX003 (sc), vehicle: suspension in saline
[3] = dose: 800.0 mg/kg/injection, schedule: Q04DX003 (sc), vehicle: suspension in saline
[4] = dose: 600.0 mg/kg/injection, schedule: Q04DX003 (sc), vehicle: saline with Tween-80
[5] = dose: 6.25 mg/kg/injection, schedule: Q01DX010 (sc), vehicle: saline with Tween-80
[6] = dose: 12.5 mg/kg/injection, schedule: Q01DX010 (sc), vehicle: saline with Tween-80
[7] = dose: 25.0 mg/kg/injection, schedule: Q01DX010 (sc), vehicle: saline with Tween-80
[8] = dose: 400.0 mg/kg/injection, schedule: Q01DX010 (sc), vehicle: saline with Tween-80
[9] = dose: 100.0 mg/kg/injection, schedule: Q04DX003 (sc), vehicle: suspension in saline
[10] = dose: 600.0 mg/kg/injection, schedule: Q04DX003 (sc), vehicle: Klucel (hydroxypropylcellulose) (HPC)
[11] = dose: 1200.0 mg/kg/injection, schedule: Q04DX003 (sc), vehicle: Klucel (hydroxypropylcellulose) (HPC)

Structure (SMILES): CC(=O)Oc1c(C)[nH]ccc1=O
- T/C [1]: 72 % of control
- T/C [2]: 87 % of control
- T/C [3]: 79 % of control

Structure (SMILES): CN=S(=O)(OCCCCCOS(=O)(=NC)c1ccccc1)c1ccccc1 (stereo not drawn)
- T/C [4]: 76 % of control

Structure (SMILES): CC1(C)OC1CS(=O)c1ccccc1 (stereo not drawn)
- T/C [4]: 121 % of control

Structure (SMILES): CCC[CH2][Sn]1([CH2]CCC)[O]C2C(CO)OC(n3ccc(N)nc3=O)C2[O]1 (stereo not drawn)
- T/C (dose: 12.0 mg/kg/injection, schedule: Q04DX003 (sc), vehicle: Klucel (hydroxypropylcellulose) (HPC)): 55 % of control
- T/C (dose: 24.0 mg/kg/injection, schedule: Q04DX003 (sc), vehicle: Klucel (hydroxypropylcellulose) (HPC)): 59 % of control

Structure (SMILES): C/C(=N\N=C(/[Se])N1CC2CCC(CC2)C1)c1ccccn1
- T/C (dose: 25.0 mg/kg/injection, schedule: Q04DX003 (sc), vehicle: Klucel (hydroxypropylcellulose) (HPC)): 106 % of control
- T/C (dose: 50.0 mg/kg/injection, schedule: Q04DX003 (sc), vehicle: Klucel (hydroxypropylcellulose) (HPC)): 110 % of control

Structure (SMILES): COc1cc(NS(C)(=O)=O)ccc1Nc1c2ccccc2nc2ccccc12
- T/C (dose: 0.75 mg/kg/injection, schedule: Q01DX010 (sc), vehicle: lactic acid): 124 % of control
- T/C (dose: 3.75 mg/kg/injection, schedule: Q01DX010 (sc), vehicle: clinical formulation): 54 % of control

Structure (SMILES): CCC/C=C/C=C/C(=O)OC1/C(=C/C(=O)OC)CC2CC(C(C)O)OC(=O)CC(O)CC3CC(OC(C)=O)C(C)(C)C(O)(CC4C/C(=C/C(=O)OC)CC(/C=C/C(C)(C)C1(O)O2)O4)O3 (stereo not drawn)
- T/C (dose: 0.25 mg/kg/injection, schedule: Q04DX003 (sc), vehicle: saline + alcohol): 103 % of control
- T/C (dose: 0.5 mg/kg/injection, schedule: Q04DX003 (sc), vehicle: saline + alcohol): 111 % of control
- T/C (dose: 1.0 mg/kg/injection, schedule: Q04DX003 (sc), vehicle: saline + alcohol): 70 % of control
- T/C (dose: 2.0 mg/kg/injection, schedule: Q04DX003 (sc), vehicle: saline + alcohol): 60 % of control

Structure (SMILES): ClCC[N+]12CC[N+](CCCl)(CC1)C2
- T/C (dose: 3.12 mg/kg/injection, schedule: Q01DX010 (sc), vehicle: saline with Tween-80): 106 % of control
- T/C [5]: 69 % of control
- T/C [6]: 108 % of control
- T/C [7]: 96 % of control
- T/C (dose: 50.0 mg/kg/injection, schedule: Q01DX010 (sc), vehicle: water): 39 % of control and 57 % of control
- T/C (dose: 75.0 mg/kg/injection, schedule: Q04DX003 (sc), vehicle: water): 51 % of control
- T/C (dose: 100.0 mg/kg/injection, schedule: Q01DX010 (sc), vehicle: water): 7 % of control and 13 % of control
- T/C (dose: 135.0 mg/kg/injection, schedule: Q04DX003 (sc), vehicle: water): 45 % of control and 63 % of control
- T/C (dose: 150.0 mg/kg/injection, schedule: Q01DX010 (sc), vehicle: water): 15 % of control
- T/C (dose: 150.0 mg/kg/injection, schedule: Q04DX003 (sc), vehicle: water): 32 % of control
- T/C (dose: 200.0 mg/kg/injection, schedule: Q01DX010 (sc), vehicle: water): -36 % of control and -32 % of control
- T/C [8]: 5 % of control
- T/C (dose: 450.0 mg/kg/injection, schedule: Q04DX003 (sc), vehicle: water): 12 % of control and 27 % of control

Structure (SMILES): CS(=O)(=O)OCCCCOS(C)(=O)=O
- T/C [5]: 114 % of control
- T/C [6]: 68 % of control
- T/C [7]: 49 % of control

Structure (SMILES): Cn1cnc([N+](=O)[O-])c1Sc1ncn[nH]1
- T/C [9]: 72 % of control
- T/C [1]: 95 % of control
- T/C [2]: 92 % of control

Structure (SMILES): CS(=O)(=O)OCCC(=O)N1CCN(C(=O)CCOS(C)(=O)=O)CC1
- T/C (dose: 300.0 mg/kg/injection, schedule: Q04DX003 (sc), vehicle: suspension in saline): 8 % of control
- T/C (dose: 600.0 mg/kg/injection, schedule: Q04DX003 (sc), vehicle: suspension in saline): -100 % of control
- T/C (dose: 1200.0 mg/kg/injection, schedule: Q04DX003 (sc), vehicle: suspension in saline): -100 % of control

Structure (SMILES): O=C(O)C1Cc2nc[nH]c2CN1CO (stereo not drawn)
- T/C (dose: 100.0 mg/kg/injection, schedule: Q04DX003 (sc), vehicle: saline with Tween-80): 113 % of control
- T/C (dose: 200.0 mg/kg/injection, schedule: Q04DX003 (sc), vehicle: saline with Tween-80): 113 % of control
- T/C (dose: 400.0 mg/kg/injection, schedule: Q04DX003 (sc), vehicle: saline with Tween-80): 80 % of control
- T/C (dose: 800.0 mg/kg/injection, schedule: Q04DX003 (sc), vehicle: saline with Tween-80): 99 % of control

Structure (SMILES): CCCC(=O)O.CCCC(=O)O.CCCC(=O)O.CCCC(=O)O.[Rh].[Rh]
- T/C (dose: 2.0 mg/kg/injection, schedule: Q04DX003 (sc), vehicle: suspension in saline): 99 % of control
- T/C (dose: 4.0 mg/kg/injection, schedule: Q04DX003 (sc), vehicle: suspension in saline): 115 % of control
- T/C (dose: 8.0 mg/kg/injection, schedule: Q04DX003 (sc), vehicle: suspension in saline): 80 % of control

Structure (SMILES): Clc1ccc(C2SC=Cc3ccccc32)cc1 (stereo not drawn)
- T/C [10]: 90 % of control
- T/C [11]: 115 % of control

Structure (SMILES): CC(=O)[O][Pb]([O]C(C)=O)([c]1ccccc1)[c]1ccccc1
- T/C (dose: 25.0 mg/kg/injection, schedule: Q01DX010 (sc), vehicle: Klucel (hydroxypropylcellulose) (HPC)): 105 % of control
- T/C (dose: 50.0 mg/kg/injection, schedule: Q01DX010 (sc), vehicle: Klucel (hydroxypropylcellulose) (HPC)): 167 % of control
- T/C (dose: 100.0 mg/kg/injection, schedule: Q01DX010 (sc), vehicle: Klucel (hydroxypropylcellulose) (HPC)): 122 % of control
- T/C (dose: 800.0 mg/kg/injection, schedule: Q01DX010 (sc), vehicle: Klucel (hydroxypropylcellulose) (HPC)): 51 % of control

Structure (SMILES): CCc1c(CC(=O)O)c2cc(C)ccc2n1Cc1ccc(Cl)cc1
- T/C (dose: 300.0 mg/kg/injection, schedule: Q04DX003 (sc), vehicle: Klucel (hydroxypropylcellulose) (HPC)): 71 % of control
- T/C [10]: 86 % of control
- T/C [11]: 51 % of control
- T/C (dose: 2400.0 mg/kg/injection, schedule: Q04DX003 (sc), vehicle: Klucel (hydroxypropylcellulose) (HPC)): 49 % of control

Structure (SMILES): CN(C)N=Nc1cn[nH]c1C(N)=O
- T/C [9]: 98 % of control
- T/C (dose: 200.0 mg/kg/injection, schedule: Q04DX003 (sc), vehicle: saline): 63 % of control
- T/C [1]: 67 % of control
- T/C (dose: 400.0 mg/kg/injection, schedule: Q04DX003 (sc), vehicle: saline): 49 % of control
- T/C [2]: 31 % of control and 37 % of control
- T/C (dose: 800.0 mg/kg/injection, schedule: Q04DX003 (sc), vehicle: saline): 13 % of control
- T/C [3]: 2 % of control and 7 % of control

Structure (SMILES): COc1cccc2c1C(=O)c1c(O)c3c(c(O)c1C2=O)CC(O)(/C(C)=N/NC(=O)CCCCC(=O)N/N=C(\C)C1(O)Cc2c(O)c4c(c(O)c2C(OC2CC(N)C(O)C(C)O2)C1)C(=O)c1c(OC)cccc1C4=O)CC3OC1CC(N)C(O)C(C)O1 (stereo not drawn)
- T/C (dose: 50.0 mg/kg/injection, schedule: Q04DX003 (sc), vehicle: water): 62 % of control
- T/C (dose: 100.0 mg/kg/injection, schedule: Q04DX003 (sc), vehicle: water): 2 % of control

Structure (SMILES): O=c1n(CC2CO2)c(=O)n(CC2CO2)c(=O)n1CC1CO1 (stereo not drawn)
- T/C (dose: 25.0 mg/kg/injection, schedule: Q04DX003 (sc), vehicle: saline): 26 % of control
- T/C (dose: 50.0 mg/kg/injection, schedule: Q04DX003 (sc), vehicle: saline): 4 % of control

Structure (SMILES): CC(=O)OC1C(O)C(C)OC(OC2C(OC(=O)C3CCC4C(C3)OC3(CC(OC(=O)/C=C/c5ccccc5)C(C)CO3)C43CO3)OC(C)C(O)C2OC(C)=O)C1O (stereo not drawn)
- T/C (dose: 15.0 mg/kg/injection, schedule: Q04DX003 (sc), vehicle: distilled water + Tween-80): 124 % of control
- T/C (dose: 30.0 mg/kg/injection, schedule: Q04DX003 (sc), vehicle: distilled water + Tween-80): 117 % of control
- T/C (dose: 60.0 mg/kg/injection, schedule: Q04DX003 (sc), vehicle: distilled water + Tween-80): 73 % of control
- T/C (dose: 120.0 mg/kg/injection, schedule: Q04DX003 (sc), vehicle: distilled water + Tween-80): 61 % of control

Structure (SMILES): O=C(CO)c1ccc([N+](=O)[O-])cc1
- T/C (dose: 100.0 mg/kg/injection, schedule: Q01DX010 (sc), vehicle: saline with Tween-80): 95 % of control
- T/C (dose: 200.0 mg/kg/injection, schedule: Q01DX010 (sc), vehicle: saline with Tween-80): 114 % of control
- T/C [8]: 67 % of control
- T/C (dose: 800.0 mg/kg/injection, schedule: Q01DX010 (sc), vehicle: saline with Tween-80): 63 % of control

Structure (SMILES): CC(=O)NC(Cc1ccc(F)cc1)C(=O)O (stereo not drawn)
- T/C (dose: 300.0 mg/kg/injection, schedule: Q04DX003 (sc), vehicle: saline with Tween-80): 100 % of control
- T/C [4]: 101 % of control
- T/C (dose: 1200.0 mg/kg/injection, schedule: Q04DX003 (sc), vehicle: saline with Tween-80): 120 % of control
- T/C (dose: 2400.0 mg/kg/injection, schedule: Q04DX003 (sc), vehicle: saline with Tween-80): 111 % of control

Structure (SMILES): C=CCOCC1CO1 (stereo not drawn)
- T/C (dose: 300.0 mg/kg/injection, schedule: Q04DX003 (sc), vehicle: saline): 72 % of control
